# Experimental data reported in PubChem BioAssay AID877 (University of Pittsburgh Molecular Library Screening Center, 2007).
# The source made the active and inactive calls. The rule behind the calls is not given here.
# Target: Serine/threonine-protein kinase PLK1 (Homo sapiens) (UniProt P53350)
# Experiment: potency against Plk1 PBD phosphopeptide binding – biochemical, fluorescence polarization, dose response (AID 877)
# Sequence of Serine/threonine-protein kinase PLK1 (Homo sapiens) (P53350 whole entry, looked up): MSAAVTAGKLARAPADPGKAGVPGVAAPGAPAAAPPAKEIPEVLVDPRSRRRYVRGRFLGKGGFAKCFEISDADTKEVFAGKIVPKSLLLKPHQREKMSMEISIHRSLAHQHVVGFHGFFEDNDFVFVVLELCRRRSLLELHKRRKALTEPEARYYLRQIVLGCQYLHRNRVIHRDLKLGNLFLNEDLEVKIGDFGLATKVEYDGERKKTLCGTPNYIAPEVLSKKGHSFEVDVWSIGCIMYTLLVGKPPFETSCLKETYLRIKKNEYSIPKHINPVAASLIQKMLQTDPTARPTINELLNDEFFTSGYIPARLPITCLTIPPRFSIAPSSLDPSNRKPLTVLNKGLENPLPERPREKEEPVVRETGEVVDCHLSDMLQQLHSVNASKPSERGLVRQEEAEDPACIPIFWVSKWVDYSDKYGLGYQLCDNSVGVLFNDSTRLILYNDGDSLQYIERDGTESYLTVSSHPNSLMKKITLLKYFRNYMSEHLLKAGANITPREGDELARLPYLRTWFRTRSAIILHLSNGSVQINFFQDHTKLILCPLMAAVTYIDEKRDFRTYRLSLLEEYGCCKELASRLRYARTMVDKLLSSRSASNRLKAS
row,IC50,Structure (SMILES)
1,> 50 µM (inactive),CCC(Sc1nc2n[nH]c(C)c2c(=N)n1-c1cccc(Cl)c1)C(=O)NCCOC (stereo not drawn)
2,> 50 µM (inactive),O=C(O)COc1ccc(Br)cc1/C=N/O
3,> 50 µM (inactive),O=C1C(C2=C(O)c3ccccc3C2=O)=Nc2ccccc21
